# Measured values reported in ChEMBL document CHEMBL3217510, “Rhodanine carboxylic acids as novel inhibitors of histone acetyltransferases” (Medchemcomm, 2012).
# Key:
# CREB-binding protein [1] = target: T1, CREB-binding protein (Homo sapiens, UniProt Q92793); assay: Inhibition of KAT3A (1319 to 1710) (unknown origin) using biotinylated histone H3 as substrate after 10 mins by TR-FRET analysis relative to control
# [2] = target: T2, Histone acetyltransferase KAT2A (Homo sapiens, UniProt Q92830); assay: Inhibition of KAT2A (362 to 837) (unknown origin) using biotinylated histone H3 as substrate after 10 mins by TR-FRET analysis relative to control
# Target sequence in this assay (Q92830 whole entry): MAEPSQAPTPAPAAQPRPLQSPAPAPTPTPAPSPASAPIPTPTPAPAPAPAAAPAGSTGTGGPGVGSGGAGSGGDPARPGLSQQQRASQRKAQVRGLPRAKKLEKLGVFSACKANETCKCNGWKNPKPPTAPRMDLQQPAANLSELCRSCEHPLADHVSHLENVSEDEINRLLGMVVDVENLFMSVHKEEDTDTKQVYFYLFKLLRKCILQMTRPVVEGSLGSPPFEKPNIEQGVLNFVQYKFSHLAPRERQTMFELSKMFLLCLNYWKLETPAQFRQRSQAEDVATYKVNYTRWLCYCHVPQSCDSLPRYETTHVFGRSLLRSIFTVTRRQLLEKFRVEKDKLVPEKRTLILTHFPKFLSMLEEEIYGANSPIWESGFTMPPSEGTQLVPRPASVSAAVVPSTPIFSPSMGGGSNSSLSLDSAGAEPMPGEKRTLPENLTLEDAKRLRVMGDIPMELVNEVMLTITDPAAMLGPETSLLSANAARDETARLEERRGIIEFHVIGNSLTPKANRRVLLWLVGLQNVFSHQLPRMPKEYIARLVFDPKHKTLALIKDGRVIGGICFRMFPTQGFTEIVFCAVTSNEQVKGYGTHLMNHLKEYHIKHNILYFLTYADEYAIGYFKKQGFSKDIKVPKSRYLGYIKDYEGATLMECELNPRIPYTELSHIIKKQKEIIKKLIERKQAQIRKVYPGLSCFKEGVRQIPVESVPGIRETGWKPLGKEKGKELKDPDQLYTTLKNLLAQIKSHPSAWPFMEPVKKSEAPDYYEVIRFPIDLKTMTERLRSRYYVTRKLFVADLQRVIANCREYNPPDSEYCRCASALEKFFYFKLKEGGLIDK
# [3] = target: T3, Histone acetyltransferase p300 (Homo sapiens, UniProt Q09472); assay: Inhibition of KAT3B (965 to 1810) (unknown origin) using biotinylated histone H3 as substrate after 10 mins by TR-FRET analysis relative to control
# [4] = target: T4, Histone acetyltransferase KAT2B (Homo sapiens, UniProt Q92831); assay: Inhibition of human recombinant N-terminal His-tagged PCAF histone acetyltransferase catalytic domain expressed in Escherichia coli BL21 D3 using biotinylated histone H3 as substrate after 10 mins by TR-FRET analysis relative to control
# Target sequence in this assay (Q92831 whole entry, the tested form may be a part): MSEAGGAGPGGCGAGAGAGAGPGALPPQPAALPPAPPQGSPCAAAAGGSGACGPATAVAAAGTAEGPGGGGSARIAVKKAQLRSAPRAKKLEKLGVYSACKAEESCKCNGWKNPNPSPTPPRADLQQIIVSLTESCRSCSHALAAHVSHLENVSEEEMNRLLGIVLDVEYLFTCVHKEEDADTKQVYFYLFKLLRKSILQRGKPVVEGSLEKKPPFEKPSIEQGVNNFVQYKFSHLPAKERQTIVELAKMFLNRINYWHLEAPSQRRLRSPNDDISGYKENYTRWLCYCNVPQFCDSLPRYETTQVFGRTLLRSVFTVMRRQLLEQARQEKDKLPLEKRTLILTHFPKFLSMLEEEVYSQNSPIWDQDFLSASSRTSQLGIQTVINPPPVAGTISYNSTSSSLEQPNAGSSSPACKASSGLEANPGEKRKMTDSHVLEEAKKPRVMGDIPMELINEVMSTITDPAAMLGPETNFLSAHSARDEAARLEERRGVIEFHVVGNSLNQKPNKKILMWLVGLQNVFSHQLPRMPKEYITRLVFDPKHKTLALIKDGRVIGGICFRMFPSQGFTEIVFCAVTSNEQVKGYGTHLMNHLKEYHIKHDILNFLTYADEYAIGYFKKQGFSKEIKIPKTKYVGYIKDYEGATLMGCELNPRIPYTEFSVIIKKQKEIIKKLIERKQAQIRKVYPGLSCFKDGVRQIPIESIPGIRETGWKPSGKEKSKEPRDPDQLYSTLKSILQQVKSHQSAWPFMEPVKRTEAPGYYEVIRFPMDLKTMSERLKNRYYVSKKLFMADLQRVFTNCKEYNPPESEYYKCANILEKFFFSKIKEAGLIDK
# [5] = target: T4, Histone acetyltransferase KAT2B; assay: Inhibition of human recombinant N-terminal His-tagged PCAF histone acetyltransferase catalytic domain expressed in Escherichia coli BL21 D3 using biotinylated histone H3 as substrate at 50 uM after 10 mins by TR-FRET analysis relative to control
# Target sequence in this assay (Q92831 whole entry, looked up, the tested form may be a part): as the sequence (Q92831 whole entry, the tested form may be a part) above
# [6] = target: T3, Histone acetyltransferase p300; assay: Inhibition of KAT3B (965 to 1810) (unknown origin) using biotinylated histone H3 as substrate at 100 uM after 10 mins by TR-FRET analysis relative to control
# [7] = target: T3, Histone acetyltransferase p300; assay: Inhibition of KAT3B (965 to 1810) (unknown origin) using biotinylated histone H3 as substrate at 50 uM after 10 mins by TR-FRET analysis relative to control
# CREB-binding protein [8] = target: T1, CREB-binding protein; assay: Inhibition of KAT3A (1319 to 1710) (unknown origin) using biotinylated histone H3 as substrate at 50 uM after 10 mins by TR-FRET analysis relative to control
# [9] = target: T2, Histone acetyltransferase KAT2A; assay: Inhibition of KAT2A (362 to 837) (unknown origin) using biotinylated histone H3 as substrate at 50 uM after 10 mins by TR-FRET analysis relative to control
# Target sequence in this assay (Q92830 2-837 limits assumed): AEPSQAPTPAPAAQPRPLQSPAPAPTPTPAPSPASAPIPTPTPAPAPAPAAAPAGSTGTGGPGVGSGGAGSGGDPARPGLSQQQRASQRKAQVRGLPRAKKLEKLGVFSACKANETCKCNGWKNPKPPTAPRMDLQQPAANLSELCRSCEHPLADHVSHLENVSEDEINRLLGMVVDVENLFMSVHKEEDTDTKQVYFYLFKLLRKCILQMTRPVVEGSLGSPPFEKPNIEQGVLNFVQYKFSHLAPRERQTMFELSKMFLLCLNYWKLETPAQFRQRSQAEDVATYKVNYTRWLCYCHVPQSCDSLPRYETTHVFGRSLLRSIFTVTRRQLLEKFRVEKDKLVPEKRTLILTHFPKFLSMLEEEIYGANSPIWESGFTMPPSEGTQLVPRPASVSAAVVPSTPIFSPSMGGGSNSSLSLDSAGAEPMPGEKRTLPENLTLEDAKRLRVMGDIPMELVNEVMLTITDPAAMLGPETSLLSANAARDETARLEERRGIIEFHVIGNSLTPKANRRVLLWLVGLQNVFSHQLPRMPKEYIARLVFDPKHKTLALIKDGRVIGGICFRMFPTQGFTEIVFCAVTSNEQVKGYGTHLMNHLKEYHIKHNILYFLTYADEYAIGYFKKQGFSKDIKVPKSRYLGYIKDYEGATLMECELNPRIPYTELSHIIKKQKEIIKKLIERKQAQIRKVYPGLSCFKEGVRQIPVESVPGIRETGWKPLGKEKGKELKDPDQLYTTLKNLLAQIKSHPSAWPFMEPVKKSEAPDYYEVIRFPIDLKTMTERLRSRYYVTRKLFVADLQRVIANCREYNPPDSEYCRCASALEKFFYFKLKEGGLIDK
# T3 sequence (Q09472 whole entry, the tested form may be a part): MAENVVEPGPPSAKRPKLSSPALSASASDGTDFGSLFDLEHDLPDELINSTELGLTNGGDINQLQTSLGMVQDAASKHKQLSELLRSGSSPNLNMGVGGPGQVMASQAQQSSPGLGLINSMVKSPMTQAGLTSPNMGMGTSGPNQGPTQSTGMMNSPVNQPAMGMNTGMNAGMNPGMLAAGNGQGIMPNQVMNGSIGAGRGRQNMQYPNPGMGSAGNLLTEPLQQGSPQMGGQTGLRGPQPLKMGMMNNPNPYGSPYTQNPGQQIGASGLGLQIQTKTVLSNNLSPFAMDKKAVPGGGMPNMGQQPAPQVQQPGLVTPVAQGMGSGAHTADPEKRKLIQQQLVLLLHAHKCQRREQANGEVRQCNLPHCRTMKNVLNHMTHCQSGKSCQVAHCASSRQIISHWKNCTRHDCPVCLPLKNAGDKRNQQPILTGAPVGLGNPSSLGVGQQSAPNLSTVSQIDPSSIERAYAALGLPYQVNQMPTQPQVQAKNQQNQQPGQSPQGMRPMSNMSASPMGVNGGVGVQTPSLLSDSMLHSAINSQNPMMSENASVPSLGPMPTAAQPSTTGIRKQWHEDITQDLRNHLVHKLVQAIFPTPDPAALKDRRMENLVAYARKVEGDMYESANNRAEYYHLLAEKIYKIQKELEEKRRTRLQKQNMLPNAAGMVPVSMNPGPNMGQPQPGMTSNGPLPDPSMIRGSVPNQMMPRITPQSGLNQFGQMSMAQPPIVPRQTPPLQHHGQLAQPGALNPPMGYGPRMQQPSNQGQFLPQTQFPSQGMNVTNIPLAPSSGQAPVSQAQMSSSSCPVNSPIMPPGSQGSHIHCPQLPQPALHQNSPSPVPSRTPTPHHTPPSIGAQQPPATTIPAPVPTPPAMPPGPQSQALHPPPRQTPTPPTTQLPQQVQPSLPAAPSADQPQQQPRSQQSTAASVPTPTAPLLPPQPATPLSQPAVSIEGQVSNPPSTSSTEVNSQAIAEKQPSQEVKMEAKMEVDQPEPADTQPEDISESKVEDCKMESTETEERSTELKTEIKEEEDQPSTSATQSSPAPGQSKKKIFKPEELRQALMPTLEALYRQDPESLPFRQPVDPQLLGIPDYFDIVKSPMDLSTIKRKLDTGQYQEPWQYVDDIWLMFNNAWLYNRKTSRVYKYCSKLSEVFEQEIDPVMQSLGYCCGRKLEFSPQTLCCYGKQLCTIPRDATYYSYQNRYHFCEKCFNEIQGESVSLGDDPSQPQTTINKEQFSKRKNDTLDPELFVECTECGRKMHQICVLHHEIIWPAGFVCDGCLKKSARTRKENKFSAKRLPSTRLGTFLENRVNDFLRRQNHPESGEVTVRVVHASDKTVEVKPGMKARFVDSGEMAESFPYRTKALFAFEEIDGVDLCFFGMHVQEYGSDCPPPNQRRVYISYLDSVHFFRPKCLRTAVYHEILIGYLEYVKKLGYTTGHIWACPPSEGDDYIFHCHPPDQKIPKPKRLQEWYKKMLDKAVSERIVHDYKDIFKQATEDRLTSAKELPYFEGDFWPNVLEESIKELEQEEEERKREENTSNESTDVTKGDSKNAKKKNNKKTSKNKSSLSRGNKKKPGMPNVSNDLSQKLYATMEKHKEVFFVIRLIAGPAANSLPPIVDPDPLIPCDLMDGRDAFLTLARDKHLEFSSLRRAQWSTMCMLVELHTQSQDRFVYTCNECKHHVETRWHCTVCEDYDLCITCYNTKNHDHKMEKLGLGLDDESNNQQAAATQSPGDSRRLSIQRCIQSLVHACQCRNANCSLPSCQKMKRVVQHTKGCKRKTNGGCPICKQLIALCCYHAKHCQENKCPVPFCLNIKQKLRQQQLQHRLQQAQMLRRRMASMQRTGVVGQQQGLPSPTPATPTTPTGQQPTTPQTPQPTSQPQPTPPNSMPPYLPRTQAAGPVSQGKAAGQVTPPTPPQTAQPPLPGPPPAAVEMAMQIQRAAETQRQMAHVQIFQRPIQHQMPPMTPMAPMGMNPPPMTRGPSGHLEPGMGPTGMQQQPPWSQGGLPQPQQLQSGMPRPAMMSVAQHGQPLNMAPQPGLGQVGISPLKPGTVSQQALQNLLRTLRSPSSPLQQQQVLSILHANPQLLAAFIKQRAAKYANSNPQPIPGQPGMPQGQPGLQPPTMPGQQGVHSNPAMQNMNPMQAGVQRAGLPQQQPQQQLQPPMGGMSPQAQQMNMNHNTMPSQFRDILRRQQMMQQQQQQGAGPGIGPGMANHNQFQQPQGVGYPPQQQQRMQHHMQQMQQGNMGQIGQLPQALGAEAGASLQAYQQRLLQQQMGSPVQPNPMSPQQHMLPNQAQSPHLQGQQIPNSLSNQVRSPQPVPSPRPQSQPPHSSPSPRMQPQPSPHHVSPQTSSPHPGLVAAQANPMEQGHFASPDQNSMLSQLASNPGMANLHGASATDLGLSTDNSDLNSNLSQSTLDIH
smiles,measurement,setting,value
O=C(O)CCCCCN1C(=O)/C(=C2/C(=O)N(Cc3ccc(F)cc3)c3ccccc32)SC1=S,IC50,CREB-binding protein [1],116 µM
same,IC50,[2],210 µM
same,IC50,[3],244 µM
same,IC50,[4],97.7 µM
CCN1C(=O)/C(=C2\SC(=S)N(CCCCCC(=O)O)C2=O)c2ccccc21,inhibition,[5],6%
O=C(O)CCCCCN1C(=O)/C(=C2/C(=O)N(Cc3ccccc3)c3ccccc32)SC1=S,inhibition,[5],13%
Cc1ccc(CN2C(=O)/C(=C3\SC(=S)N(CCCCCCCC(=O)O)C3=O)c3ccccc32)cc1,IC50,CREB-binding protein [1],35.9 µM
same,IC50,[2],63.5 µM
same,IC50,[3],95.3 µM
same,IC50,[4],63.7 µM
O=C(O)CCCCCN1C(=O)/C(=C2/C(=O)N(Cc3ccc([N+](=O)[O-])cc3)c3ccccc32)SC1=S,IC50,CREB-binding protein [1],28.4 µM
same,IC50,[2],69.6 µM
same,IC50,[3],152 µM
same,IC50,[4],78.2 µM
O=C(O)CCCCCN1C(=O)/C(=C/c2ccc(-c3ccccc3)cc2)SC1=S,inhibition,[5],< 5%
Cc1ccc(CN2C(=O)/C(=C3\SC(=S)N(C[C@H]4CC[C@H](C(=O)O)CC4)C3=O)c3ccccc32)cc1,inhibition,[6],23%
same,IC50,CREB-binding protein [1],38.5 µM
same,IC50,[2],46.4 µM
same,IC50,[4],41.8 µM
Cc1ccc(CN2C(=O)/C(=C3\SC(=S)N(CCCCC(=O)O)C3=O)c3ccccc32)cc1,inhibition,[5],8%
COc1ccc(/C=C2\SC(=S)N(CCCCCC(=O)O)C2=O)cc1Br,inhibition,[5],8%
O=C(O)c1ccc(N2C(=O)/C(=C3/C(=O)N(Cc4ccccc4)c4ccccc43)SC2=S)cc1,inhibition,[5],14%
COc1ccc(CN2C(=O)/C(=C3\SC(=S)N(CCCCCC(=O)O)C3=O)c3ccccc32)cc1,IC50,CREB-binding protein [1],40.9 µM
same,IC50,[2],54.7 µM
same,IC50,[3],61.9 µM
same,IC50,[4],28.8 µM
COC(=O)CCCCCN1C(=O)/C(=C/c2ccc(C)cc2)SC1=S,inhibition,[5],24%
COC(=O)CCCCCN1C(=O)/C(=C/c2cc(OC)ccc2OC)SC1=S,inhibition,[5],21%
COC(=O)CCCCCN1C(=O)/C(=C2/C(=O)N(Cc3ccc(C)cc3)c3ccccc32)SC1=S,inhibition,[7],< 5%
same,inhibition,CREB-binding protein [8],25%
same,inhibition,[5],8%
same,inhibition,[9],6%
CN1C(=O)/C(=C2\SC(=S)N(CCCCCC(=O)O)C2=O)c2ccccc21,inhibition,[5],5%
CC1=C/C(=N/Nc2ccnc3cc(Cl)ccc23)CC1,inhibition,[5],12%
CN(C)c1ccc(/C=C2\SC(=S)N(CCCCCC(=O)O)C2=O)cc1,inhibition,[5],< 5%
Cc1cccc(NC(=O)CN2C(=O)/C(=C3\SC(=S)N(CCS(=O)(=O)O)C3=O)c3ccccc32)c1,inhibition,[5],6%
CCCCCCOc1ccc(/C=C2\SC(=S)N(CCCC(=O)O)C2=O)cc1,inhibition,[5],8%
CCOc1ccccc1/C=C1\SC(=S)N(CCCCCC(=O)OC)C1=O,inhibition,[5],9%
Cc1ccc(COc2cccc(/C=C3\SC(=S)N(CCCC(=O)O)C3=O)c2)cc1,inhibition,[5],5%
Cc1ccc(CN2C(=O)/C(=C3\SC(=S)N(CCCCCC(=O)O)C3=O)c3ccccc32)cc1,IC50,CREB-binding protein [1],41 µM
same,IC50,[2],47 µM
same,IC50,[3],81 µM
same,IC50,[4],67.2 µM
O=C1Nc2ccccc2/C1=C1/SC(=S)N(CCS(=O)(=O)O)C1=O,inhibition,[5],< 5%
O=c1c2cccnc2sn1Cc1ccc(Cl)cc1,IC50,CREB-binding protein [1],1.95 µM
same,IC50,[2],89.9 µM
COC(=O)CCN1C(=O)/C(=C/c2cc(OC)ccc2OC)SC1=S,inhibition,[5],8%
O=C(O)CCCCCN1C(=O)/C(=C2/C(=O)Nc3ccccc32)SC1=S,inhibition,[5],9%
Cc1ccc(CN2C(=O)/C(=C3\SC(=S)N(CCS(=O)(=O)O)C3=O)c3ccccc32)cc1,inhibition,[5],< 5%
